Test system: Lipoprotein Particle Concentrations
Test: Lipoprotein particle concentrations, 12-week double-blind placebo-controlled study of >96% E-EPA in statin-treated patients
Format: in vivo, human
Details: 12 weeks; for IDL, Change From Baseline, % / IDL, End of Treatment / Large HDL, Change From Baseline, % / Large HDL, End of Treatment / Large LDL, Change From Baseline, % / Large LDL, End of Treatment / Large VLDL, Change From Baseline, % / Large VLDL, End of Treatment / Medium HDL, Change From Baseline, % / Medium HDL, End of Treatment / Medium VLDL, Change From Baseline, % / Medium VLDL, End of Treatment / Small HDL, Change From Baseline, % / Small HDL, End of Treatment / Small LDL, Change From Baseline, % / Small LDL, End of Treatment / Small VLDL, Change From Baseline, % / Small VLDL, End of Treatment / Total HDL, Change From Baseline, % / Total HDL, End of Treatment / Total LDL, Change From Baseline, % / Total LDL, End of Treatment / Total VLDL, Change From Baseline, % / Total VLDL, End of Treatment: median
Experimental: A multi-center, placebo-controlled, randomized, double-blind, 12-week study was performed to evaluate the efficacy and safety of >96% E-EPA in patients with fasting triglyceride levels ≥200 mg/dl and <500 mg/dl despite statin therapy (the mean of two qualifying entry values needed to be ≥185 mg/dl and at least one of the values needed to be ≥200 mg/dl). The primary objective of the study was to determine the efficacy of >96% E-EPA 2 g daily and 4 g daily, compared to placebo, in lowering fasting TG levels in patients with high risk for cardiovascular disease and with fasting TG levels ≥200 mg/dl and <500 mg/dl, despite treatment to LDL-C goal on statin therapy.
The population for this study was men and women >18 years of age with a body mass index ≤45 kg/m^2 with fasting TG levels greater than or equal to 200 mg/dl and less than 500 mg/dl and on a stable does of statin therapy (with or without ezetimibe). The statin was atorvostatin, rosuvastatin or simvastatin. The dose of statin must have been stable for ≥4 weeks prior to the LDL-C/TG baseline qualifying measurement for randomization. The statin dose was optimized such that the patients are at their LDL-C goal at the LDL-C/TG baseline qualifying measurements. The same statin at the same dose was continued until the study ended.
Approximately 702 patients were randomized at approximately 80 centers in the U.S. The study was a 18- to 20-week, Phase 3, multi-center study consisting of 2 study periods: (1) A 6- to 8-week screening period that included a diet and lifestyle stabilization, a non-statin lipid-altering treatment washout, and an LDL-C and TG qualifying period and (2) A 12-week, double-blind, randomized, placebo-controlled treatment period.
After confirmation of qualifying fasting LDL-C and TG values, eligible patients entered a 12-week, randomized, double-blind treatment period. At Visit 4 (Week 0), patients were randomly assigned to 1 of the following treatment groups: • >96% E-EPA 2 g daily, • >96% E-EPA 4 g daily, or • Placebo.
During the double-blind treatment period, patients were to take 2 capsules (>96% E-EPA or matching placebo) in the morning and 2 capsules in the evening for a total of 4 capsules per day. • Patients in the >96% E-EPA 2 g/day treatment group received 1>96% E-EPA 1 g capsule and 1 matching placebo capsule in the morning and in the evening. • Patients in the >96% E-EPA 4 g/day treatment group received 2>96% E-EPA 1 g capsules in the morning and evening.
The primary efficacy variable for the double-blind treatment period was percent change in TG from baseline to Week 12 endpoint. The secondary efficacy variables for the double-blind treatment period included the following: • Percent changes in total cholesterol (TC), high-density lipoprotein cholesterol (HDL-C), LDL-C, calculated non-HDL-C, and very low-density lipoprotein cholesterol (VLDL-C) from baseline to Week 12 endpoint; • Percent change in very low-density lipoprotein TG from baseline to Week 12; • Percent changes in apolipoprotein A-I (apo A-I), apolipoprotein B (apo B), and apo A-I/apo B ratio from baseline to Week 12; • Percent changes in lipoprotein(a) from baseline to Week 12; • Percent changes in LDL particle number and size, measured by nuclear magnetic resonance, from baseline to Week 12; • Percent change in remnant-like particle cholesterol from baseline to Week 12; • Percent change in oxidized LDL from baseline to Week 12; • Changes in FPG and HbA1c from baseline to Week 12; • Change in insulin resistance, as assessed by the homeostasis model index insulin resistance, from baseline to Week 12; • Percent change in lipoprotein associated phospholipase A2 (Lp-PLA2) from baseline to Week 12; • Change in intracellular adhesion molecule-1 from baseline to Week 12; • Change in interleukin-2 from baseline to Week 12; • Change in plasminogen activator inhibitor-1 from baseline to Week 12. […]

[1] = 2 g/day, placebo-adjusted Hodges-Lehmann median
[2] = 4 g/day, placebo-adjusted Hodges-Lehmann median
[3] = 4 g/day, placebo-adjusted Hodges-Lehmann median, listed as Ethyl Eicosapentaenoate
[4] = 4 g/day, placebo-adjusted Hodges-Lehmann median, listed as IPE

What does the source list for CC/C=C\C/C=C\C/C=C\C/C=C\C/C=C\CCCC(=O)OCC [ethyl eicosapentaenoate, all-cis eicosa-5,8,11,14,17-pentaenoic acid ethyl ester]?
IDL, Change From Baseline, % (2 g/day, n = 222): 10.5%; IDL, End of Treatment (2 g/day, n = 222): 63.5 nmol/L; Large HDL, Change From Baseline, % (2 g/day, n = 222): −4.0%; Large HDL, End of Treatment (2 g/day, n = 222): 2.4 µmol/L; Large LDL, Change From Baseline, % (2 g/day, n = 222): 47.7%; Large LDL, End of Treatment (2 g/day, n = 222): 202.0 nmol/L; Large VLDL, Change From Baseline, % (2 g/day, n = 222): −19.7%; Large VLDL, End of Treatment (2 g/day, n = 222): 10.0 nmol/L; Medium HDL, Change From Baseline, % (2 g/day, n = 222): 2.9%; Medium HDL, End of Treatment (2 g/day, n = 222): 7.2 µmol/L; Medium VLDL, Change From Baseline, % (2 g/day, n = 222): 7.9%; Medium VLDL, End of Treatment (2 g/day, n = 222): 59.6 nmol/L; Small HDL, Change From Baseline, % (2 g/day, n = 222): −0.6%; Small HDL, End of Treatment (2 g/day, n = 222): 23.8 µmol/L; Small LDL, Change From Baseline, % (2 g/day, n = 222): −4.3%; Small LDL, End of Treatment (2 g/day, n = 222): 920.5 nmol/L; Small VLDL, Change From Baseline, % (2 g/day, n = 222): 22.1%; Small VLDL, End of Treatment (2 g/day, n = 222): 49.6 nmol/L; Total HDL, Change From Baseline, % (2 g/day, n = 222): 0.7%; Total HDL, End of Treatment (2 g/day, n = 222): 34.7 µmol/L; Total LDL, Change From Baseline, % (2 g/day, n = 222): 4.7%; Total LDL, End of Treatment (2 g/day, n = 222): 1215 nmol/L; Total VLDL, Change From Baseline, % (2 g/day, n = 222): 12.0%; Total VLDL, End of Treatment (2 g/day, n = 222): 122.4 nmol/L; IDL, Median Change From Baseline IPE 2 g/day vs Placebo, % [1]: 8.6%; Large HDL, Median Change From Baseline IPE 2 g/day vs Placebo, % [1]: −13.5%; Large LDL, Median Change From Baseline IPE 2 g/day vs Placebo, % [1]: 26.5%; Large VLDL, Median Change From Baseline IPE 2 g/day vs Placebo, % [1]: −24.2%; Medium HDL, Median Change From Baseline IPE 2 g/day vs Placebo, % [1]: −4.5%; Medium VLDL, Median Change From Baseline IPE 2 g/day vs Placebo, % [1]: 2.6%; Small HDL, Median Change From Baseline IPE 2 g/day vs Placebo, % [1]: −0.2%; Small LDL, Median Change From Baseline IPE 2 g/day vs Placebo, % [1]: −14.7%; Small VLDL, Median Change From Baseline IPE 2 g/day vs Placebo, % [1]: 16.5%; Total HDL, Median Change From Baseline IPE 2 g/day vs Placebo, % [1]: −3.1%; Total LDL, Median Change From Baseline IPE 2 g/day vs Placebo, % [1]: −7.5%; Total VLDL, Median Change From Baseline IPE 2 g/day vs Placebo, % [1]: 1.8%; reduction of median concentration of small LDL particles over baseline when adjusted for placebo control (4 g per day): 13.5%; reduction of median concentration of total HDL over baseline when adjusted for placebo (4 g per day): 7.4%; reduction of median concentration of total LDL over baseline when adjusted for placebo (4 g per day): 7.7%; reduction of median concentration of total VLDL over baseline when adjusted for placebo (4 g per day): 12.2%; IDL, Change From Baseline, % (4 g/day, n = 216): 23.7%; IDL, End of Treatment (4 g/day, n = 216): 63.0 nmol/L; Large HDL, Change From Baseline, % (4 g/day, n = 216): −21.6%; Large HDL, End of Treatment (4 g/day, n = 216): 1.9 µmol/L; Large LDL, Change From Baseline, % (4 g/day, n = 216): 55.2%; Large LDL, End of Treatment (4 g/day, n = 216): 172.5 nmol/L; Large VLDL, Change From Baseline, % (4 g/day, n = 216): −41.9%; Large VLDL, End of Treatment (4 g/day, n = 216): 7.7 nmol/L; Medium HDL, Change From Baseline, % (4 g/day, n = 216): 4.2%; Medium HDL, End of Treatment (4 g/day, n = 216): 6.9 µmol/L; Medium VLDL, Change From Baseline, % (4 g/day, n = 216): −6.9%; Medium VLDL, End of Treatment (4 g/day, n = 216): 49.7 nmol/L; Small HDL, Change From Baseline, % (4 g/day, n = 216): −3.9%; Small HDL, End of Treatment (4 g/day, n = 216): 23.1 µmol/L; Small LDL, Change From Baseline, % (4 g/day, n = 216): −1.1%; Small LDL, End of Treatment (4 g/day, n = 216): 902.5 nmol/L; Small VLDL, Change From Baseline, % (4 g/day, n = 216): 8.3%; Small VLDL, End of Treatment (4 g/day, n = 216): 46.8 nmol/L; Total HDL, Change From Baseline, % (4 g/day, n = 216): −4.0%; Total HDL, End of Treatment (4 g/day, n = 216): 32.6 µmol/L; Total LDL, Change From Baseline, % (4 g/day, n = 216): 3.8%; Total LDL, End of Treatment (4 g/day, n = 216): 1191 nmol/L; Total VLDL, Change From Baseline, % (4 g/day, n = 216): −2.5%; Total VLDL, End of Treatment (4 g/day, n = 216): 110.0 nmol/L; IDL, Median Change From Baseline IPE 4 g/day vs Placebo, % [2]: 10.0%; Large HDL, Median Change From Baseline IPE 4 g/day vs Placebo, % [2]: significantly reduced; Large LDL, Median Change From Baseline IPE 4 g/day vs Placebo, % [2]: increased; Large VLDL, Median Change From Baseline IPE 4 g/day vs Placebo, % [2]: significantly reduced; Medium HDL, Median Change From Baseline IPE 4 g/day vs Placebo, % [2]: −6.5%; Medium VLDL, Median Change From Baseline IPE 4 g/day vs Placebo, % [2]: significantly reduced; Small HDL, Median Change From Baseline IPE 4 g/day vs Placebo, % [2]: −2.8%; Small LDL, Median Change From Baseline IPE 4 g/day vs Placebo, % [2]: significantly reduced; Small VLDL, Median Change From Baseline IPE 4 g/day vs Placebo, % [2]: 2.8%; Total HDL, Median Change From Baseline IPE 4 g/day vs Placebo, % [2]: significantly reduced; Total LDL, Median Change From Baseline IPE 4 g/day vs Placebo, % [2]: significantly reduced; Total VLDL, Median Change From Baseline IPE 4 g/day vs Placebo, % [2]: significantly reduced; Small LDL, Median Change From Baseline IPE 4 g/day vs Placebo, % [3]: −13.5%; Total HDL, Median Change From Baseline IPE 4 g/day vs Placebo, % [3]: −7.4%; Total LDL, Median Change From Baseline IPE 4 g/day vs Placebo, % [3]: −7.7%; Total VLDL, Median Change From Baseline IPE 4 g/day vs Placebo, % [3]: −12.2%; Large HDL, Median Change From Baseline IPE 4 g/day vs Placebo, % [4]: −31.0%; Large LDL, Median Change From Baseline IPE 4 g/day vs Placebo, % [4]: 34.2%; Large VLDL, Median Change From Baseline IPE 4 g/day vs Placebo, % [4]: −46.4%; Medium VLDL, Median Change From Baseline IPE 4 g/day vs Placebo, % [4]: −12.1%; Small LDL, Median Change From Baseline IPE 4 g/day vs Placebo, % [4]: −13.5%; Total HDL, Median Change From Baseline IPE 4 g/day vs Placebo, % [4]: −7.4%; Total LDL, Median Change From Baseline IPE 4 g/day vs Placebo, % [4]: −7.7%; Total VLDL, Median Change From Baseline IPE 4 g/day vs Placebo, % [4]: −12.2%

— patent US20210069145A1, “COMPOSITIONS AND METHODS FOR REDUCING A FATTY ACID DESATURATION INDEX IN A SUBJECT IN NEED THEREOF” (Amarin Pharmaceuticals Ireland Limited, priority 2013, published 2021)
